Reference: US11571413B2, “Nicotinamide riboside treatments of domesticated meat animals” (Kansas State University Research Foundation, priority 2017, dated 2023)
Marks after values point to notes of the source that are not given here.

Test system: Fertilized Cobb 500 broiler eggs
Test: In ovo NR dose, time course of body and pectoralis major morphometrics at E15, E19, hatch (second Example VI)
Assay type: in vivo, chicken
Method: Fertilized Cobb 500 broiler eggs (N=247; Cobb Vantress, Siloam Springs, Ark.) were transported to Kansas State University Muscle Biology Laboratory (Manhattan, Kans.), egg weights were recorded, and within each 4 egg strata eggs were randomly assigned to an NR treatment (0 mM, 250 mM, 500 mM, or 1 M NR). After treatment allocation, eggs were put onto trays and placed in a Sportsman 1502 incubator (GQF Manufacturing Company Inc., Savannah, Ga.) set to operate at 37° C. and 40±4% relative humidity. Trays were rotated hourly to reposition eggs and egg weights were recorded daily to determine percentage weight loss with a standard daily weight loss ranging from 0.65% to 0.75%.
At d 10 of incubation, the methods of Gonzalez and Jackson (2020) were followed for treatment administration. Eggs were briefly removed from the incubator and prior to injection, the injection site was cleaned with 70% ethanol. […] of 0.9% sterile saline was injected into yolk sac of each egg with a 2.54-cm, 20-guage injection needle inserted approximately 1-cm into injection site. The injection site was covered with a 1-cm^2 portion of medical tape (Nexcare; 3M, Maplewood, Minn.) and placed back into the incubator under the conditions described above. At d 18 of incubation, egg were removed from their trays, placed in hatching boxes, and the humidity of the incubator was increased to 60±2%.
At three time points, E (i.e., embryonic day 15, day 15 after the beginning of incubation), E19, and 24 hours post-hatching, embryos and chicks were euthanized by exposure to CO2 and decapitation. Crown to rump length (CR), head width and head length were measured by calipers (Traceable Digital Calipers; Fisher Scientific, Pittsburg, Pa.). Head and chest circumference were collected by curling a string around the target area and measuring the length of the curled string by a ruler. Chicks chest were sprayed with 70% ethanol, were skinned to expose the PMM, and chest width and length were measured by calipers. Both sides of the PMM were removed and the left side was weighed, followed by length, width, and thickness measurement collection. Following measurement collection, the left PMM was submerged in optimal cutting temperature tissue freezing medium compound, slowly frozen at −20° C. for 1 h, and stored at −80° C. until cryosectioning. The right side of PMM was stored in a 1.5 ml microcentrifuge tube and stored at −80° C. until NAD+ analysis. At last, the heart and liver of each chick were removed, weighed, and discarded.

[1] = 250 mM NR into yolk sac d 10, E15 embryos
[2] = 250 mM NR into yolk sac d 10, E19 embryos
[3] = 250 mM NR into yolk sac d 10, hatched chicks
[4] = 500 mM NR into yolk sac d 10, E15 embryos
[5] = 500 mM NR into yolk sac d 10, E19 embryos
[6] = 500 mM NR into yolk sac d 10, hatched chicks
[7] = 1,000 mM NR into yolk sac d 10, E15 embryos
[8] = 1,000 mM NR into yolk sac d 10, E19 embryos
[9] = 1,000 mM NR into yolk sac d 10, hatched chicks
[10] = E19 embryos, 250 to 1,000 mM NR

Work on `NC(=O)c1ccc[n+]([C@@H]2O[C@H](CO)[C@@H](O)[C@H]2O)c1` [Nicotinamide riboside, nicotinamide riboside] yielded a Body weight [1] of 14.5 g, a Crown-rump length [1] of 61.4 mm and a Head length [1] of 17.6 mm. For the same compound, the Head width [1] was 13.7 mm, the Heart weight [1] was 0.14 g and the Liver weight [1] was 0.27 g. It also gave a Pectoralis major depth [1] of 7.2 mm, a Pectoralis major length [1] of 18.3 mm and a Pectoralis major weight [1] of 0.81 g. The Pectoralis major width [1] was 14.7 mm, the Body weight [2] was 37.7 g and the Chest circumference [2] was 59.5 mm. The Chest length [2] was 18.6 mm, the Chest width [2] was 15.5 mm and the Crown-rump length [2] was 84.3 mm. For the same compound, the Head circumference [2] was 53.2^a,c mm, the Head length [2] was 17.7 mm and the Head width [2] was 15.4 mm. The Heart weight [2] was 0.22 g, the Liver weight [2] was 0.64 g and the Pectoralis major depth [2] was 2.9 mm. For the same compound, the Pectoralis major length [2] was 17.2^b mm, the Pectoralis major weight [2] was 0.17^b g and the Pectoralis major width [2] was 5.5 mm. For the same compound, the Body weight [3] was 46.9 g, the Chest circumference [3] was 61.2 mm and the Chest length [3] was 21.9 mm. For the same compound, the Chest width [3] was 17.1^b mm, the Crown-rump length [3] was 95.4 mm and the Head circumference [3] was 55.7 mm. For the same compound, the Head length [3] was 18.7^b mm, the Head width [3] was 15.5 mm and the Heart weight [3] was 0.31 g. For the same compound, the Liver weight [3] was 0.84 g, the Pectoralis major depth [3] was 3.1^a,b mm and the Pectoralis major length [3] was 19.9^b mm. For the same compound, the Pectoralis major weight [3] was 0.23^b g, the Pectoralis major width [3] was 5.5^b mm and the Body weight [4] was 14.2 g. It also gave a Crown-rump length [4] of 61.1 mm, a Head length [4] of 17.8 mm and a Head width [4] of 13.7 mm. It also gave a Heart weight [4] of 0.13 g, a Liver weight [4] of 0.25 g and a Pectoralis major depth [4] of 7.1 mm. The Pectoralis major length [4] was 17.8 mm, the Pectoralis major weight [4] was 0.82 g and the Pectoralis major width [4] was 15.2 mm. The Body weight [5] was 37.9 g, the Chest circumference [5] was 60.1 mm and the Chest length [5] was 18.5 mm. For the same compound, the Chest width [5] was 16.3 mm, the Crown-rump length [5] was 85.9 mm and the Head circumference [5] was 54.8^b,c mm. For the same compound, the Head length [5] was 17.4 mm, the Head width [5] was 15.3 mm and the Heart weight [5] was 0.22 g. The Liver weight [5] was 0.64 g, the Pectoralis major depth [5] was 2.7 mm and the Pectoralis major length [5] was 17.7^b mm. For the same compound, the Pectoralis major weight [5] was 0.18^b g, the Pectoralis major width [5] was 5.7 mm and the Body weight [6] was 46.1 g. For the same compound, the Chest circumference [6] was 62.5 mm, the Chest length [6] was 21.2 mm and the Chest width [6] was 16.6^a,b mm. For the same compound, the Crown-rump length [6] was 95.0 mm, the Head circumference [6] was 55.6 mm and the Head length [6] was 18.2^a,b mm. For the same compound, the Head width [6] was 15.7 mm, the Heart weight [6] was 0.31 g and the Liver weight [6] was 0.90 g. For the same compound, the Pectoralis major depth [6] was 3.3^b mm, the Pectoralis major length [6] was 20.3^b mm and the Pectoralis major weight [6] was 0.23^b g. For the same compound, the Pectoralis major width [6] was 5.6^b mm, the Body weight [7] was 13.9 g and the Crown-rump length [7] was 61.0 mm. The Head length [7] was 17.4 mm, the Head width [7] was 14.0 mm and the Heart weight [7] was 0.14 g. The Liver weight [7] was 0.28 g, the Pectoralis major depth [7] was 6.6 mm and the Pectoralis major length [7] was 18.5 mm. It also gave a Pectoralis major weight [7] of 0.84 g, a Pectoralis major width [7] of 14.9 mm and a Body weight [8] of 38.1 g. The Chest circumference [8] was 61.5 mm, the Chest length [8] was 18.3 mm and the Chest width [8] was 15.4 mm. The Crown-rump length [8] was 86.3 mm, the Head circumference [8] was 55.0^b mm and the Head length [8] was 17.6 mm. For the same compound, the Head width [8] was 15.4 mm, the Heart weight [8] was 0.23 g and the Liver weight [8] was 0.63 g. For the same compound, the Pectoralis major depth [8] was 2.9 mm, the Pectoralis major length [8] was 17.6^b mm and the Pectoralis major weight [8] was 0.17^b g. The Pectoralis major width [8] was 5.6 mm, the Body weight [9] was 46.6 g and the Chest circumference [9] was 61.4 mm. The Chest length [9] was 21.1 mm, the Chest width [9] was 16.1^a mm and the Crown-rump length [9] was 93.0 mm. For the same compound, the Head circumference [9] was 53.9 mm, the Head length [9] was 17.8^a mm and the Head width [9] was 15.5 mm. For the same compound, the Heart weight [9] was 0.32 g, the Liver weight [9] was 0.96 g and the Pectoralis major depth [9] was 3.0^a mm. For the same compound, the Pectoralis major length [9] was 19.1^a,b mm, the Pectoralis major weight [9] was 0.22^b g and the Pectoralis major width [9] was 5.4^b mm. For the same compound, the “Increase of PMM length (minimum over NR doses)” value [10] was ≥ 13%, the “Increase of PMM weight (minimum over NR doses)” value [10] was ≥ 21% and the “Increase in PMM depth” value (at hatch) was 18%. For the same compound, the “Increase in PMM length” value (at hatch) was 13%, the “Increase in PMM width” value (at hatch) was 17% and the PMM weight advantage (at hatch) was 35%.
